Key:
[1] = molecular target: T1, CCR2 (Homo sapiens, UniProt P41597); assay: CCR2 activity in one of the chemotaxis, binding or calcium mobilization assays; assay type: cell-based; details: assay not specified per compound
T1 construct: CCR2 expressing THP-1 cells were centrifuged and resuspended in assay buffer; host or cells: THP-1
T1 sequence (P41597 1-360 isoform P41597-2): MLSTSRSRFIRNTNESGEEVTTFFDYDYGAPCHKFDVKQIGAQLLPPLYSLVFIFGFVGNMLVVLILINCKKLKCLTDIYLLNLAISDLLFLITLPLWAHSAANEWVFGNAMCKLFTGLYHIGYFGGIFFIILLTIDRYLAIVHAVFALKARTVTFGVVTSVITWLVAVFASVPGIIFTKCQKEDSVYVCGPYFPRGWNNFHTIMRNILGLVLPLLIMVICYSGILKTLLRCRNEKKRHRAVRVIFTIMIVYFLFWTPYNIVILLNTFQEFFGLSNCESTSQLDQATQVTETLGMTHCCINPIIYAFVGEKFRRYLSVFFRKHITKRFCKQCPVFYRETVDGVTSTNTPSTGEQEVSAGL
Description: Conventional migration assay was used to determine the efficacy of potential receptor antagonists in blocking migration mediated through chemokines (such as CCR2 or CCR9). This assay was routinely performed using the ChemoTX® microchamber system with a 5-μm pore-sized polycarbonate membrane. To begin such an assay, chemokine expressing cells (such as THP-1 cells for CCR2 assay or MOLT-4 cells for CCR9 assay) were harvested by centrifugation of cell suspension at 1000 RPM on a GS-6R Beckman centrifuge. The cell pellet was resuspended in chemotaxis buffer (HBSS with 0.1% BSA) at 10×10^6 cells/mL for CCR2 assay (5×10^6 cells/mL for CCR9 assay). Test compounds at desired concentrations were prepared from 10 mM stock solutions by serial dilutions in chemotaxis buffer. An equal volume of cells and compounds were mixed and incubated at room temperature for 15 minutes. Afterwards, 20 μL of the mixture was transferred onto the porous membrane of a migration microchamber, with 29 μL of chemokine ligand (0.1 nM chemokine MCP-1 protein for CCR2 assay or […] chemokine TECK protein for CCR9 assay) placed at the lower chamber. Following an incubation at 37° C. (90-minute for CCR2; 150-minute for CCR9), during which cells migrated against the chemokine gradient, the assay was terminated by removing the cell drops from atop the filter. To quantify cells migrated across the membrane, 5 μL of 7×CyQUANT® solution was added to each well in the lower chamber, and the fluorescence signal measured on a Spectrafluor Plus fluorescence plate reader (TECAN, Durham, N.C.). The degree of inhibition was determined by comparing migration signals between compound-treated and untreated cells. IC50 calculation was further performed by non-linear squares regression analysis using Graphpad Prism (Graphpad Software, San Diego, Calif.).
Calcium flux assay measures an increase in intracellular calcium following ligand-induced receptor activation. In the screen of chemokine antagonists, it was used as a secondary assay carried out on a FLIPR® machine (Molecular Devices, Mountain View, Calif.). To begin an assay, chemokine expressing cells (such as THP-1 cells for CCR2 assay or MOLT-4 cells for CCR9 assay) were harvested by centrifugation of cell suspension, and resuspended to 1.5×10^6 cells/mL in HBSS (with 1% fetal calf serum). Cells were then labeled with a calcium indicator dye Fluo-4 AM for 45 minutes at 37° C. with gentle shaking. Following incubation, cells were pelletted, washed once with HBSS and resuspended in the same buffer at a density of 1.6×10^6 cells/mL. One hundred microliters of labeled cells were mixed with 10 μL of test compound at the appropriate concentrations on an assay plate. Chemokine protein (MCP-1 at a final concentration of 0.1 nM for CCR2 assay or TECK at a final concentration of 25 nM for CCR9 assay) to activate the receptor. The degree of inhibition was determined by comparing calcium signals between compound-treated and untreated cells. IC50 calculations were further performed by non-linear squares regression analysis using Graphpad Prism (Graphpad Software, San Diego, Calif.).
Ligand binding assay was used to determine the ability of potential CCR2 antagonists to block the interaction between CCR2 and its ligand MCP-1. CCR2 expressing THP-1 cells were centrifuged and resuspended in assay buffer (20 mM HEPES pH 7.1, 140 mM NaCl, 1 mM CaCl2, 5 mM MgCl2, and with 0.2% bovine serum albumin) to a concentration of 2.2×10^5 cells/mL. Binding assays were set up as follows. […]

[2] = molecular target: T2, CCR9 (Homo sapiens, UniProt P51686); assay: CCR9 activity in one of the chemotaxis, binding or calcium mobilization assays; assay type: cell-based; details: assay not specified per compound
T2 construct: chemokine expressing cells (such as THP-1 cells for CCR2 assay or MOLT-4 cells for CCR9 assay); host or cells: MOLT-4
T2 sequence (P51686 1-369): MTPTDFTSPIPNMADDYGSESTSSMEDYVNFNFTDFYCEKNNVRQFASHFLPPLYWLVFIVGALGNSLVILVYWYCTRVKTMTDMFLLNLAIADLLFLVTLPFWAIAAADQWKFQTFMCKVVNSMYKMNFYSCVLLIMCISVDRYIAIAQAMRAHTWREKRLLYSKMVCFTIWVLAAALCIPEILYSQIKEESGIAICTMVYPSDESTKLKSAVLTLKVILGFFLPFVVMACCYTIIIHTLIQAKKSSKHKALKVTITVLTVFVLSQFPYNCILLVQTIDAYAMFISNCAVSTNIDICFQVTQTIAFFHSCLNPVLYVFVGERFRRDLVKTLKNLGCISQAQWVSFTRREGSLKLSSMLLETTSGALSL
Method in brief: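 Chemotaxis: THP-1 cells (CCR2, 0.1 nM MCP-1, 90 min) or MOLT-4 cells (CCR9, 50 nM TECK, 150 min) preincubated with compound 15 min RT, migration at 37 °C through 5-μm membrane, CyQUANT read; IC50 by nonlinear regression. Calcium flux: Fluo-4-loaded cells, 0.1 nM MCP-1 or 25 nM TECK. Binding: THP-1, ~50 pM [125I]MCP-1, 3 h, 4 °C.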

Row | Compound | IC50 [1] [µM] | IC50 [2] [µM]
1 | Cc1nnc(-c2ccc(Cl)cc2NS(=O)(=O)c2ccc(Cl)c(C(F)(F)F)c2)n1-c1cc[nH]n1 [Compound 158] | < 1 | 
2 | NC(=O)c1nnc(-c2cc(F)c(Cl)cc2NS(=O)(=O)c2ccc(Cl)c(C(F)(F)F)c2)n1-c1cc[nH]n1 [Compound 161, 5-(4-chloro-2-(4-chloro-3-(trifluoromethyl)phenylsulfonamido)-5-fluorophenyl)-4-(1H-pyrazol-3-yl)-4H-1,2,4-triazole-3-carboxamide] | < 1 | 
3 | O=S(=O)(Nc1cc(Cl)ccc1-c1nncn1-c1cc[nH]n1)c1ccc(Cl)c(C(F)(F)F)c1 [Compound 157] | < 1 | 
4 | O=S(=O)(Nc1cc(Cl)c(F)cc1-c1nncn1-c1cc[nH]n1)c1ccc(Cl)c(C(F)(F)F)c1 [Compound 160, N-(2-(4-(1H-pyrazol-3-yl)-4H-1,2,4-triazol-3-yl)-5-chloro-4-fluorophenyl)-4-chloro-3-(trifluoromethyl)benzenesulfonamide] | < 1 | 
5 | O=S(=O)(Nc1cc(Cl)ccc1-c1nncn1-c1ccccc1)c1ccc(Cl)c(C(F)(F)F)c1 [Compound 159, 4-chloro-N-(5-chloro-2-(4-phenyl-4H-1,2,4-triazol-3-yl)phenyl)-3-(trifluoromethyl)benzenesulfonamide] | < 1 | 
6 | CNCc1nnc(-c2cc(Cl)ccc2NS(=O)(=O)c2ccc(C(C)(C)C)cc2)n1C [Compound 132, 4-tert-butyl-N-(4-chloro-2-(4-methyl-5-((methylamino)methyl)-4H-1,2,4-triazol-3-yl)phenyl)benzenesulfonamide] |  | < 1
7 | Cn1c(-c2cc(Cl)c(F)cc2NS(=O)(=O)c2ccc(C(C)(C)C)cc2)nnc1C1CCOC1 (stereo not shown) [Compound 115] |  | < 1
8 | CC(C)(C)c1ccc(S(=O)(=O)Nc2ccc(Cl)cc2-c2nncn2-c2ccccc2)cc1 [Compound 2, 4-tert-butyl-N-(4-chloro-2-(4-phenyl-4H-1,2,4-triazol-3-yl)phenyl)benzenesulfonamide] |  | < 1
9 | CCc1nnc(-c2cc(C#N)ccc2NS(=O)(=O)c2ccc(C(C)(C)C)cc2)n1C [Compound 128, 4-tert-butyl-N-(4-cyano-2-(5-ethyl-4-methyl-4H-1,2,4-triazol-3-yl)phenyl)benzenesulfonamide] |  | < 1
10 | Cc1nnc(-c2cc(Cl)ccc2NS(=O)(=O)c2ccc(OC(C)C)cc2)n1C [Compound 68, N-(4-chloro-2-(4,5-dimethyl-4H-1,2,4-triazol-3-yl)phenyl)-4-isopropoxybenzenesulfonamide] |  | < 1
11 | Cc1nnc(-c2cc(Cl)ccc2NS(=O)(=O)c2ccc(C(C)(C)C)cc2)n1C1CCCC1 [Compound 14, 4-tert-butyl-N-(4-chloro-2-(4-cyclopentyl-5-methyl-4H-1,2,4-triazol-3-yl)phenyl)benzenesulfonamide] |  | < 1
12 | Cc1nnc(-c2cc(Cl)ccc2NS(=O)(=O)c2ccc(C(C)(C)C)cc2)n1CCN [Compound 83, N-(2-(4-(2-aminoethyl)-5-methyl-4H-1,2,4-triazol-3-yl)-4-chlorophenyl)-4-tert-butylbenzenesulfonamide] |  | < 1
13 | COCCn1cnnc1-c1cc(Cl)c(F)cc1NS(=O)(=O)c1ccc(C(C)(C)C)cc1 [Compound 136, 4-tert-butyl-N-(4-chloro-5-fluoro-2-(4-(2-methoxyethyl)-4H-1,2,4-triazol-3-yl)phenyl)benzenesulfonamide] |  | < 1
14 | Cn1c(-c2cc(Cl)c(F)cc2NS(=O)(=O)c2ccc(C(C)(C)C)cc2)nnc1C1CCCNC1 (stereo not shown) [Compound 145] |  | < 1
15 | CCn1c(C)nnc1-c1c(NS(=O)(=O)c2ccc(C(C)(C)C)cc2)ccc(Cl)c1F [Compound 29, 4-tert-butyl-N-(4-chloro-2-(4-ethyl-5-methyl-4H-1,2,4-triazol-3-yl)-3-fluorophenyl)benzenesulfonamide] |  | < 1
16 | Cn1cnnc1-c1cc(Cl)ccc1NS(=O)(=O)c1ccc(C(C)(C)C)cc1 [Compound 30, 4-tert-butyl-N-(4-chloro-2-(4-methyl-4H-1,2,4-triazol-3-yl)phenyl)benzenesulfonamide] |  | < 1
17 | CCn1c(C)nnc1-c1ccc(F)cc1NS(=O)(=O)c1ccc(C(C)(C)C)cc1 [Compound 74, 4-tert-butyl-N-(2-(4-ethyl-5-methyl-4H-1,2,4-triazol-3-yl)-5-fluorophenyl)benzenesulfonamide] |  | < 1
18 | C[C@@H](O)c1nnc(-c2cc(Cl)c(F)cc2NS(=O)(=O)c2ccc(C(C)(C)C)cc2)n1C [Compound 61] |  | < 1
19 | Cc1nnc(-c2cc(Cl)ccc2NS(=O)(=O)c2ccc(C(C)(C)C)cc2)n1-c1cc[nH]n1 [Compound 16] |  | < 1
